Experimental data as given in the NIST ThermoML archive (doi:10.1016/j.jct.2017.02.023).

Key:
[1] = xn = mol fraction of the nth substance listed; details: 81.5 kPa, Liquid, Vibrating tube method
[2] = refractive index (Na D-line) (dimensionless); xn = mol fraction of the nth substance listed; details: 81.5 kPa, Liquid, Standard Abbe refractometry

CNC1CCCCC1 [N-methylcyclohexylamine] + CC(C)O
Details | mass density, 298.15 K [kg/m3] | mass density, 308.15 K [kg/m3] | mass density, 318.15 K [kg/m3] | mass density, 328.15 K [kg/m3] | refractive index, 298.15 K | refractive index, 308.15 K | refractive index, 318.15 K | refractive index, 328.15 K
[1], x2 = 0 | 865.2 | 856.57 | 847.67 | 838.68 | – | – | – | –
[1], x2 = 0.159 | 860.12 | 851.49 | 842.65 | 833.57 | – | – | – | –
[1], x2 = 0.2745 | 855.75 | 847.1 | 838.18 | 828.82 | – | – | – | –
[1], x2 = 0.3856 | 850.26 | 841.55 | 832.63 | 823.19 | – | – | – | –
[1], x2 = 0.4867 | 843.79 | 835.1 | 826.14 | 816.62 | – | – | – | –
[1], x2 = 0.5738 | 836.95 | 828.24 | 819.27 | 809.59 | – | – | – | –
[1], x2 = 0.6539 | 829.55 | 820.8 | 811.84 | 802 | – | – | – | –
[1], x2 = 0.7253 | 822.01 | 813.27 | 804.23 | 794.36 | – | – | – | –
[1], x2 = 0.7904 | 814.28 | 805.54 | 796.65 | 786.58 | – | – | – | –
[1], x2 = 0.85 | 806.34 | 797.64 | 788.79 | 778.81 | – | – | – | –
[1], x2 = 0.904 | 798.29 | 789.69 | 780.82 | 770.72 | – | – | – | –
[1], x2 = 0.9541 | 789.83 | 781.27 | 772.4 | 762.26 | – | – | – | –
[2], x2 = 0 | – | – | – | – | 1.45306 | 1.44812 | 1.4431 | 1.43809
[2], x2 = 0.159 | – | – | – | – | 1.4471 | 1.44293 | 1.43862 | 1.43418
[2], x2 = 0.2745 | – | – | – | – | 1.44224 | 1.43814 | 1.43386 | 1.42939
[2], x2 = 0.3856 | – | – | – | – | 1.43655 | 1.43263 | 1.42854 | 1.4242
[2], x2 = 0.4867 | – | – | – | – | 1.43021 | 1.42642 | 1.42248 | 1.41824
[2], x2 = 0.5738 | – | – | – | – | 1.42372 | 1.41996 | 1.41606 | 1.41185
[2], x2 = 0.6539 | – | – | – | – | 1.41688 | 1.41311 | 1.4092 | 1.40495
[2], x2 = 0.7253 | – | – | – | – | 1.41003 | 1.40629 | 1.40239 | 1.39812
[2], x2 = 0.7904 | – | – | – | – | 1.40314 | 1.39948 | 1.39565 | 1.39141
[2], x2 = 0.85 | – | – | – | – | 1.39619 | 1.39265 | 1.38892 | 1.38471
[2], x2 = 0.904 | – | – | – | – | 1.38928 | 1.38579 | 1.38209 | 1.37787
[2], x2 = 0.9541 | – | – | – | – | 1.38224 | 1.37859 | 1.37474 | 1.37035

CNC1CCCCC1 [N-methylcyclohexylamine] + CCC(C)O
Details | mass density, 298.15 K [kg/m3] | mass density, 308.15 K [kg/m3] | mass density, 318.15 K [kg/m3] | mass density, 328.15 K [kg/m3] | refractive index, 298.15 K | refractive index, 308.15 K | refractive index, 318.15 K | refractive index, 328.15 K
[1], x2 = 0 | 865.2 | 856.57 | 847.67 | 838.68 | – | – | – | –
[1], x2 = 0.1217 | 861.95 | 853.4 | 844.58 | 835.58 | – | – | – | –
[1], x2 = 0.2333 | 858.47 | 849.82 | 840.98 | 831.86 | – | – | – | –
[1], x2 = 0.3367 | 854.47 | 845.86 | 836.97 | 827.75 | – | – | – | –
[1], x2 = 0.4323 | 850 | 841.4 | 832.5 | 823.2 | – | – | – | –
[1], x2 = 0.5211 | 845.14 | 836.51 | 827.6 | 818.27 | – | – | – | –
[1], x2 = 0.603 | 840.01 | 831.35 | 822.48 | 813.01 | – | – | – | –
[1], x2 = 0.6803 | 834.52 | 825.88 | 817.02 | 807.46 | – | – | – | –
[1], x2 = 0.7528 | 828.72 | 820.14 | 811.27 | 801.72 | – | – | – | –
[1], x2 = 0.8202 | 822.7 | 814.18 | 805.33 | 795.72 | – | – | – | –
[1], x2 = 0.8827 | 816.47 | 807.88 | 799.18 | 789.6 | – | – | – | –
[1], x2 = 0.9426 | 809.83 | 801.25 | 792.58 | 782.94 | – | – | – | –
[2], x2 = 0 | – | – | – | – | 1.45306 | 1.44812 | 1.4431 | 1.43809
[2], x2 = 0.1217 | – | – | – | – | 1.44931 | 1.44493 | 1.44047 | 1.43597
[2], x2 = 0.2333 | – | – | – | – | 1.44578 | 1.44144 | 1.43701 | 1.43258
[2], x2 = 0.3367 | – | – | – | – | 1.44206 | 1.43776 | 1.4334 | 1.42907
[2], x2 = 0.4323 | – | – | – | – | 1.43795 | 1.43374 | 1.42946 | 1.4252
[2], x2 = 0.5211 | – | – | – | – | 1.43338 | 1.42927 | 1.42503 | 1.42076
[2], x2 = 0.603 | – | – | – | – | 1.42849 | 1.42444 | 1.42021 | 1.41587
[2], x2 = 0.6803 | – | – | – | – | 1.42326 | 1.41926 | 1.41502 | 1.41065
[2], x2 = 0.7528 | – | – | – | – | 1.41783 | 1.41387 | 1.40967 | 1.40535
[2], x2 = 0.8202 | – | – | – | – | 1.41236 | 1.40841 | 1.40429 | 1.4001
[2], x2 = 0.8827 | – | – | – | – | 1.40689 | 1.40292 | 1.39886 | 1.39478
[2], x2 = 0.9426 | – | – | – | – | 1.40126 | 1.39719 | 1.39303 | 1.38886

CNC1CCCCC1 [N-methylcyclohexylamine] + CCCC(C)O
Details | mass density, 298.15 K [kg/m3] | mass density, 308.15 K [kg/m3] | mass density, 318.15 K [kg/m3] | mass density, 328.15 K [kg/m3] | refractive index, 298.15 K | refractive index, 308.15 K | refractive index, 318.15 K | refractive index, 328.15 K
[1], x2 = 0 | 865.2 | 856.57 | 847.67 | 838.68 | – | – | – | –
[1], x2 = 0.1044 | 861.35 | 852.83 | 844.04 | 835.12 | – | – | – | –
[1], x2 = 0.2039 | 857.57 | 849.03 | 840.23 | 831.28 | – | – | – | –
[1], x2 = 0.3 | 853.62 | 845.09 | 836.29 | 827.28 | – | – | – | –
[1], x2 = 0.391 | 849.43 | 840.92 | 832.15 | 823.1 | – | – | – | –
[1], x2 = 0.4776 | 844.86 | 836.35 | 827.59 | 818.52 | – | – | – | –
[1], x2 = 0.5621 | 839.71 | 831.21 | 822.49 | 813.38 | – | – | – | –
[1], x2 = 0.6395 | 834.44 | 825.96 | 817.29 | 808.15 | – | – | – | –
[1], x2 = 0.7115 | 829.18 | 820.72 | 812.03 | 802.91 | – | – | – | –
[1], x2 = 0.7926 | 822.85 | 814.43 | 805.84 | 796.73 | – | – | – | –
[1], x2 = 0.8644 | 817.04 | 808.68 | 800.16 | 791.09 | – | – | – | –
[1], x2 = 0.9338 | 811.24 | 802.9 | 794.42 | 785.33 | – | – | – | –
[2], x2 = 0 | – | – | – | – | 1.45306 | 1.44812 | 1.4431 | 1.43809
[2], x2 = 0.1044 | – | – | – | – | 1.45003 | 1.44535 | 1.44061 | 1.4359
[2], x2 = 0.2039 | – | – | – | – | 1.44678 | 1.44217 | 1.43745 | 1.43273
[2], x2 = 0.3 | – | – | – | – | 1.44339 | 1.43884 | 1.43417 | 1.42945
[2], x2 = 0.391 | – | – | – | – | 1.43985 | 1.43539 | 1.43078 | 1.42612
[2], x2 = 0.4776 | – | – | – | – | 1.43608 | 1.43168 | 1.42715 | 1.42254
[2], x2 = 0.5621 | – | – | – | – | 1.43195 | 1.42759 | 1.42311 | 1.41857
[2], x2 = 0.6395 | – | – | – | – | 1.42779 | 1.42345 | 1.419 | 1.41449
[2], x2 = 0.7115 | – | – | – | – | 1.42361 | 1.41932 | 1.4149 | 1.41042
[2], x2 = 0.7926 | – | – | – | – | 1.41862 | 1.41442 | 1.41007 | 1.40562
[2], x2 = 0.8644 | – | – | – | – | 1.41398 | 1.40989 | 1.40561 | 1.40119
[2], x2 = 0.9338 | – | – | – | – | 1.40928 | 1.40524 | 1.40097 | 1.39653
